Laboratory results: patent publication US10208015B2, “Aryl-triazolyl pyridines as pest control agents” (BAYER ANIMAL HEALTH GMBH, priority 2014, dated 2019)
Like-named read-outs stand apart in the source and are kept apart here.

Key:
[1] = logP by HPLC on reversed-phase column (C18), EEC Directive 79/831 Annex V.A8; format: physicochemical; conditions: for logP: HPLC, C18, acetonitrile (0.1% formic acid)/water (0.09% formic acid) gradient
[2] = system: Boophilus microplus Parkhurst strain, SP-resistant; assay: Boophilus microplus dip test; format: in vivo; conditions: application rate 100 ppm, assessed after 7 days
Protocol: Boophilus microplus—Dip Test
• Test animals: cattle ticks (Boophilus microplus) Parkhurst strain, SP-resistant • Solvent: dimethyl sulphoxide
10 mg of active compound are dissolved in 0.5 ml of dimethyl sulphoxide. To produce a suitable formulation, the active compound solution is diluted with water to the concentration desired in each case.
This active compound preparation is pipetted into tubes. 8-10 engorged adult female cattle ticks (Boophilus microplus) are transferred into a further tube with holes. The tube is immersed into the active compound preparation, and all the ticks are completely wetted. After the liquid has run out, the ticks are transferred on filter discs into plastic dishes and stored in a climate-controlled room.
Efficacy is assessed after 7 days by laying of fertile eggs. Eggs which are not visibly fertile are stored in a climate-controlled cabinet until the larvae hatch after about 42 days. An efficacy of 100% means that none of the ticks has laid any fertile eggs; 0% means that all the eggs are fertile.

[3] = system: Lucilia cuprina; assay: Lucilia cuprina test; format: in vivo; conditions: application rate 100 ppm, L1 larvae, after 2 days
Protocol: (§1) • Solvent: dimethyl sulphoxide
(§2) To produce a suitable preparation of active compound, 10 mg of active compound are mixed with 0.5 ml of dimethyl sulphoxide, and the concentrate is diluted with water to the desired concentration.
About 20 L1 larvae of the Australian sheep blowfly (Lucilia cuprina) are transferred into a test vessel containing minced horsemeat and the active compound preparation of the desired concentration.
After 2 days, the kill in % is determined. 100% means that all the larvae have been killed; 0% means that no larvae have been killed.

[4] = system: Ctenocephalides felis; assay: Ctenocephalides felis oral test; format: in vivo; conditions: application rate 100 ppm in citrated cattle blood, after 2 days
Source text: Ctenocephalides felis—Oral Test • Solvent: dimethyl sulphoxide […] Dilution with citrated cattle blood gives the desired concentration. About 20 unfed adult cat fleas (Ctenocephalides felis) are placed into a chamber which is closed at the top and bottom with gauze. A metal cylinder whose bottom end is closed with parafilm is placed onto the chamber. The cylinder contains the blood/active compound preparation, which can be imbibed by the fleas through the parafilm membrane.

[5] = system: Boophilus microplus; assay: Boophilus microplus injection test; format: in vivo; conditions: application rate 20 μg/animal, assessed after 7 days
Protocol: Boophilus microplus—Injection Test • Solvent: dimethyl sulphoxide […] The animals are transferred into dishes and kept in a climate-controlled room. Efficacy is assessed after 7 days by laying of fertile eggs. Eggs which are not visibly fertile are stored in a climate-controlled cabinet until the larvae hatch after about 42 days.

[6] = system: Musca domestica; assay: Musca domestica test; format: in vivo; conditions: application rate 100 ppm, adult houseflies, after 2 days
Protocol: as §1, §2
Vessels containing a sponge treated with sugar solution and the active compound preparation of the desired concentration are populated with 10 adult houseflies (Musca domestica).
After 2 days, the kill in % is determined. 100% means that all of the flies have been killed; 0% means that none of the flies have been killed.

[7] = system: Tetranychus urticae; assay: Tetranychus urticae spray test, OP-resistant; format: in vivo; conditions: application rate 100 g/ha, after 6 days
Protocol: Tetranychus Urticae—Spray Test, OP-Resistant
(§3) • Solvent: 78.0 parts by weight of acetone • 1.5 parts by weight of dimethylformamide • Emulsifier: alkylaryl polyglycol ether
To produce further test concentrations, the preparation is diluted with emulsifier-containing water.
After 6 days, the efficacy in % is determined. 100% means that all the spider mites have been killed; 0% means that none of the spider mites have been killed.

[8] = system: Phaedon cochleariae; assay: Phaedon cochleariae spray test; format: in vivo; conditions: application rate 100 g/ha, after 7 days
Protocol: Phaedon Cochleariae—Spray Test
as §3
To produce a suitable preparation of active compound, 1 part by weight of active compound is dissolved using the stated parts by weight of solvent and made up with water containing an emulsifier concentration of 1000 ppm until the desired concentration is attained. To produce further test concentrations, the preparation is diluted with emulsifier-containing water.
After 7 days, the efficacy in % is determined. 100% means that all the beetle larvae have been killed; 0% means that no beetle larvae have been killed.

**Q.** With `CN(C(=O)c1cc(-c2cn(-c3c(Cl)cc(C(F)(C(F)(F)F)C(F)(F)F)cc3OC(F)F)nn2)cnc1Cl)C1CC1` [Example 37] as the compound, how does the logP [1] read?
**A.** 4.2

**Q.** Which “efficacy (laying of fertile eggs)” value [2] does the source give for `CCc1cc(C(F)(C(F)(F)F)C(F)(F)F)cc(C)c1-n1cc(-c2cnc(Cl)c(C(=O)NC3CC3)c2)nn1` [Example 20] here?
**A.** 100%

**Q.** And the logP [1]?
**A.** 4.1

**Q.** And the “efficacy (kill in %)” value [3]?
**A.** 100%

**Q.** And the “efficacy (kill in %)” value [4]?
**A.** 100%

**Q.** What about the “efficacy (laying of fertile eggs)” value [5] of the same compound?
**A.** 100%

**Q.** For `CCc1cc(C(F)(C(F)(F)F)C(F)(F)F)cc(C)c1-n1cc(-c2cnc(Cl)c(C(=O)NC(C)C)c2)nn1` [Example 24], which logP [1] is on record?
**A.** 4.4

**Q.** And the “efficacy (kill in %)” value [4]?
**A.** 100%

**Q.** And the “efficacy (laying of fertile eggs)” value [5]?
**A.** 100%

**Q.** With `N#CC1(NC(=O)c2cc(-c3cn(-c4c(Cl)cc(C(F)(C(F)(F)F)C(F)(F)F)cc4OC(F)F)nn3)cnc2Cl)CC1` [Example 38] as the compound, how does the logP [1] read?
**A.** 3.7

**Q.** For `CCc1cc(C(F)(C(F)(F)F)C(F)(F)F)cc(Br)c1N` [2-bromo-6-ethyl-4-heptafluoroisopropylaniline], which “log P (HPLC-MS)” value [1] is on record?
**A.** 4.38

**Q.** Which results are given for `CCNC(=O)c1cc(-c2cn(-c3c(C)cc(C(F)(C(F)(F)F)C(F)(F)F)cc3CC)nn2)cnc1Cl` [Example 25]?
**A.** efficacy (laying of fertile eggs) [2]: 100%; logP [1]: 4.1; efficacy (kill in %) [6]: 80%; efficacy (kill in %) [3]: 100%; efficacy (kill in %) [4]: 100%; efficacy (laying of fertile eggs) [5]: 100%

**Q.** What does the source list for `O=C(NCC(F)(F)F)c1cc(-c2cn(-c3c(Cl)cc(-c4ccccc4)cc3Cl)nn2)cnc1Cl` [Example 28]?
**A.** logP [1]: 3.9; efficacy (kill in %) [4]: 100%; efficacy (laying of fertile eggs) [5]: 100%

**Q.** Which logP [1] does the source give for `CCNC(=O)c1cc(-c2cn(-c3c(Cl)cc(-c4ccccc4)cc3Cl)nn2)cnc1Cl` [Example 30] here?
**A.** 3.5

**Q.** And the “efficacy (kill in %)” value [3]?
**A.** 100%

**Q.** And the “efficacy (kill in %)” value [4]?
**A.** 100%

**Q.** What about the “efficacy (laying of fertile eggs)” value [5] of the same compound?
**A.** 100%

**Q.** Which “efficacy (laying of fertile eggs)” value [2] does the source give for `O=C(NC1CC1)c1cc(-c2cn(-c3c(Cl)cc(C(F)(C(F)(F)F)C(F)(F)F)cc3OC(F)(F)F)nn2)cnc1Cl` [Example 33] here?
**A.** 100%

**Q.** What about the logP [1] of the same compound?
**A.** 4.1

**Q.** And the “efficacy (kill in %)” value [6]?
**A.** 100%

**Q.** And the “efficacy (kill in %)” value [3]?
**A.** 100%

**Q.** What about the “efficacy (kill in %)” value [4] of the same compound?
**A.** 100%

**Q.** What about the “efficacy (laying of fertile eggs)” value [5] of the same compound?
**A.** 100%

**Q.** Which results are given for `N#CC1(NC(=O)c2cc(-c3cn(-c4c(Cl)cc(C(F)(C(F)(F)F)C(F)(F)F)cc4OC(F)(F)F)nn3)cnc2Cl)CC1` [Example 34]?
**A.** efficacy in % [7]: 100%; efficacy in % [8]: 100%; logP [1]: 4.0; efficacy (kill in %) [6]: 100%; efficacy (kill in %) [3]: 100%; efficacy (kill in %) [4]: 100%; efficacy (laying of fertile eggs) [5]: 100%

**Q.** Which results are given for `O=C(NC1CC1)c1cc(-c2cn(-c3c(Cl)cc(-c4ccccc4)cc3Cl)nn2)cnc1Cl` [Example 32]?
**A.** logP [1]: 3.5; efficacy (kill in %) [3]: 100%; efficacy (kill in %) [4]: 100%; efficacy (laying of fertile eggs) [5]: 100%

**Q.** Which logP [1] does the source give for `CN(C(=O)c1cc(-c2cn(-c3c(Cl)cc(-c4ccccc4)cc3Cl)nn2)cnc1Cl)C1CC1` [Example 31] here?
**A.** 4.0

**Q.** What about the “efficacy (kill in %)” value [3] of the same compound?
**A.** 100%

**Q.** And the “efficacy (kill in %)” value [4]?
**A.** 100%

**Q.** What about the “efficacy (laying of fertile eggs)” value [5] of the same compound?
**A.** 100%

**Q.** Which logP [1] does the source give for `O=C(NC1CC1)c1cc(-c2cn(-c3c(Cl)cc(C(F)(C(F)(F)F)C(F)(F)F)cc3OC(F)F)nn2)cnc1Cl` [Example 36] here?
**A.** 3.7

**Q.** For `Cc1cc(C(F)(C(F)(F)F)C(F)(F)F)cc(Br)c1-n1cc(-c2cnc(Cl)c(C(=O)N(C)C3CC3)c2)nn1` [Example 21], which “efficacy (laying of fertile eggs)” value [2] is on record?
**A.** 100%

**Q.** And the logP [1]?
**A.** 4.4

**Q.** And the “efficacy (kill in %)” value [6]?
**A.** 100%

**Q.** And the “efficacy (kill in %)” value [3]?
**A.** 100%

**Q.** And the “efficacy (kill in %)” value [4]?
**A.** 100%

**Q.** And the “efficacy (laying of fertile eggs)” value [5]?
**A.** 100%

**Q.** Which “log P (HPLC-MS)” value ([1]; HPLC-MS method a)) does the source give for `CCc1cc(C(F)(C(F)(F)F)C(F)(F)F)cc(Cl)c1N` [2-chloro-6-ethyl-4-heptafluoroisopropylaniline] here?
**A.** 4.67

**Q.** Which logP [1] does the source give for `Cc1cc(C(F)(C(F)(F)F)C(F)(F)F)cc(Br)c1-n1cc(-c2cnc(Cl)c(C(=O)NCC(F)(F)F)c2)nn1` [Example 26] here?
**A.** 4.3

**Q.** And the “efficacy (kill in %)” value [6]?
**A.** 100%

**Q.** And the “efficacy (kill in %)” value [3]?
**A.** 100%

**Q.** What about the “efficacy (kill in %)” value [4] of the same compound?
**A.** 100%

**Q.** And the “efficacy (laying of fertile eggs)” value [5]?
**A.** 100%

**Q.** What does the source list for `CCc1cc(C(F)(C(F)(F)F)C(F)(F)F)cc(C)c1-n1cc(-c2cnc(Cl)c(C(=O)NCC(F)(F)F)c2)nn1` [Example 23]?
**A.** logP [1]: 4.5; efficacy (kill in %) [3]: 100%; efficacy (kill in %) [4]: 100%; efficacy (laying of fertile eggs) [5]: 100%

**Q.** Which “efficacy (laying of fertile eggs)” value [2] does the source give for `CCc1cc(C(F)(C(F)(F)F)C(F)(F)F)cc(C)c1-n1cc(-c2cnc(Cl)c(C(=O)N(C)C3CC3)c2)nn1` [Example 19] here?
**A.** 100%

**Q.** What about the logP [1] of the same compound?
**A.** 4.6

**Q.** What about the “efficacy (kill in %)” value [6] of the same compound?
**A.** 80%

**Q.** And the “efficacy (kill in %)” value [3]?
**A.** 100%

**Q.** What about the “efficacy (kill in %)” value [4] of the same compound?
**A.** 100%

**Q.** And the “efficacy (laying of fertile eggs)” value [5]?
**A.** 100%

**Q.** With `Cc1cc(C(F)(C(F)(F)F)C(F)(F)F)cc(C(F)(F)F)c1N` [4-heptafluoroisopropyl-2-methyl-6-trifluoromethylaniline] as the compound, how does the “log P (HPLC-MS)” value ([1]; HPLC-MS method a)) read?
**A.** 4.67

**Q.** For `Cc1cc(C(F)(C(F)(F)F)C(F)(F)F)cc(Br)c1-n1cc(-c2cnc(Cl)c(C(=O)NC3CC3)c2)nn1` [Example 22], which “efficacy (laying of fertile eggs)” value [2] is on record?
**A.** 100%

**Q.** And the logP [1]?
**A.** 3.9

**Q.** What about the “efficacy (kill in %)” value [6] of the same compound?
**A.** 100%

**Q.** And the “efficacy (kill in %)” value [3]?
**A.** 100%

**Q.** What about the “efficacy (kill in %)” value [4] of the same compound?
**A.** 100%

**Q.** What about the “efficacy (laying of fertile eggs)” value [5] of the same compound?
**A.** 100%

**Q.** Which logP [1] does the source give for `CC(C)NC(=O)c1cc(-c2cn(-c3c(Cl)cc(-c4ccccc4)cc3Cl)nn2)cnc1Cl` [Example 29] here?
**A.** 3.8

**Q.** And the “efficacy (laying of fertile eggs)” value [5]?
**A.** 100%

**Q.** Which “efficacy (laying of fertile eggs)” value [2] does the source give for `CCNC(=O)c1cc(-c2cn(-c3c(C)cc(C(F)(C(F)(F)F)C(F)(F)F)cc3Br)nn2)cnc1Cl` [Example 27] here?
**A.** 100%

**Q.** And the logP [1]?
**A.** 3.9

**Q.** And the “efficacy (kill in %)” value [6]?
**A.** 100%

**Q.** What about the “efficacy (kill in %)” value [3] of the same compound?
**A.** 100%

**Q.** And the “efficacy (kill in %)” value [4]?
**A.** 100%

**Q.** And the “efficacy (laying of fertile eggs)” value [5]?
**A.** 100%

**Q.** What does the source list for `COc1ncc(-c2cn(-c3c(Cl)cc(C(F)(C(F)(F)F)C(F)(F)F)cc3Cl)nn2)cc1C(=O)NC1CC1` [Example 10]?
**A.** logP [1]: 4.4; efficacy (kill in %) [3]: 95%; efficacy (kill in %) [4]: 100%; efficacy (laying of fertile eggs) [5]: 100%
